The record followed here is US12448389B2, “BRM targeting compounds and associated methods of use” (Prelude Therapeutics Incorporated, priority 2020, dated 2025).

One test concerns the target T1, SMARCA2-HiBiT (Homo sapiens, UniProt P51531).
T1 construct: SMARCA2-HiBiT knock-in Hela monoclonal cell (CS302366); host or cells: HeLa monoclonal knock-in line (CRISPR HiBiT knock-in at the endogenous locus, heterozygous)
As to the kind of experiment: SMARCA2 HiBiT degradation assay in HeLa cells. The format is cell-based. The following applies: 18 hours incubation; for DC50: read-out: HeLa_HiBit-SM2 DC50; for Dmax: HeLa, read-out: HeLa-HiBit-SM2 Dmax (%). The method, boiled down: (§1)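 HeLa monoclonal lines with heterozygous HiBiT knock-in were seeded at 2500 cells/well in EMEM with 10% FBS and treated with compound for 18 h at 37 °C. Remaining tagged protein was measured by Nano-Glo HiBiT lytic luminescence after 30–60 min at RT, and values came from curve fitting.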

The target of another test is T2, SMARCA4-HiBiT (Homo sapiens, UniProt P51532).
T2 construct: SMARCA4-HiBiT knock-in Hela monoclonal cell (CS3023226); host or cells: HeLa monoclonal knock-in line (CRISPR HiBiT knock-in at the endogenous locus, heterozygous)
As to the kind of experiment: SMARCA4 HiBiT degradation assay in HeLa cells. The format is cell-based. The following applies: 18 hours incubation; for DC50: read-out: HeLa-HiBit-SM4 DC50; for Dmax: HeLa, read-out: HeLa-HiBit-SM4 Dmax (%). The essentials: as §1

Some results are limits rather than exact numbers.

T2 sequence (P51532 whole entry): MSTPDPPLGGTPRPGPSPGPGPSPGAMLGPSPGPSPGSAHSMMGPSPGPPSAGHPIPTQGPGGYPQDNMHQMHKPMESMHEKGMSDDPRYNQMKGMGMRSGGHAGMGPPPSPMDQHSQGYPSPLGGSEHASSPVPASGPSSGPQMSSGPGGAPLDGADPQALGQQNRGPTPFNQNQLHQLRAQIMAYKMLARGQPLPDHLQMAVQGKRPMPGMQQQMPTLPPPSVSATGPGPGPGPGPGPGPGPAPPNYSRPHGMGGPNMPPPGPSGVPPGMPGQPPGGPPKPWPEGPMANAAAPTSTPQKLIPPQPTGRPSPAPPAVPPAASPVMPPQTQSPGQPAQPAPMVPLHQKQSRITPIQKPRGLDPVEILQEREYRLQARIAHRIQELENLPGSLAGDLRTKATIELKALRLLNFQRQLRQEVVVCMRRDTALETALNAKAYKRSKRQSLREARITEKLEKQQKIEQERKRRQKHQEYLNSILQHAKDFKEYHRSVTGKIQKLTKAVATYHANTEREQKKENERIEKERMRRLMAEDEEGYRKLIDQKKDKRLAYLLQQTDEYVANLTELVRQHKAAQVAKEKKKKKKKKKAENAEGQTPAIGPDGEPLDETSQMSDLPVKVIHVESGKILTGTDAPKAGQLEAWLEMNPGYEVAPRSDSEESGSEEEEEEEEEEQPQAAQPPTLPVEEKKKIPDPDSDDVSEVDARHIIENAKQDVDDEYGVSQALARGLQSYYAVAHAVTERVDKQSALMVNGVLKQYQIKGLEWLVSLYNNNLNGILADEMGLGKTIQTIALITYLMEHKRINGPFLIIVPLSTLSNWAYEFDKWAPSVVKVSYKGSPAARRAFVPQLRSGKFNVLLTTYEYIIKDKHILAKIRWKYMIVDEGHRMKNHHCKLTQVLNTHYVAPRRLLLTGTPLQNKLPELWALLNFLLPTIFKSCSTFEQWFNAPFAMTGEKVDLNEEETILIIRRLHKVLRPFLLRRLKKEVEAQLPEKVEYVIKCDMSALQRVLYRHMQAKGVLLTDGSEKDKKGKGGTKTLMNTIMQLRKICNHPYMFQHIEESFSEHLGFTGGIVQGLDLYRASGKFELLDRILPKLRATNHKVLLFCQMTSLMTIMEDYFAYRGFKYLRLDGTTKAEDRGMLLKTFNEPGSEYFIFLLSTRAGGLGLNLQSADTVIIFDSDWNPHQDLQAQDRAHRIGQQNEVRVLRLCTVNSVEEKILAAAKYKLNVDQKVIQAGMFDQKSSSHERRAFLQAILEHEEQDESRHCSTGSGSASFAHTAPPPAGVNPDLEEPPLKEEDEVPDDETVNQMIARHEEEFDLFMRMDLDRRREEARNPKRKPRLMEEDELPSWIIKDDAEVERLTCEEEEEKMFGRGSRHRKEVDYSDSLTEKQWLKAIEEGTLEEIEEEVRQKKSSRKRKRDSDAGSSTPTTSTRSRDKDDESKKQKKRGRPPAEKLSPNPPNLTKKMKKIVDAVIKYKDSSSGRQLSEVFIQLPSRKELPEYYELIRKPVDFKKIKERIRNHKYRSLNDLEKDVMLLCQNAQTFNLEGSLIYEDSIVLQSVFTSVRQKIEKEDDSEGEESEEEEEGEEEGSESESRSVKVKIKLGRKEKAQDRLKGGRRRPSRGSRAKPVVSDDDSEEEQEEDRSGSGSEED
T1 sequence (P51531 whole entry): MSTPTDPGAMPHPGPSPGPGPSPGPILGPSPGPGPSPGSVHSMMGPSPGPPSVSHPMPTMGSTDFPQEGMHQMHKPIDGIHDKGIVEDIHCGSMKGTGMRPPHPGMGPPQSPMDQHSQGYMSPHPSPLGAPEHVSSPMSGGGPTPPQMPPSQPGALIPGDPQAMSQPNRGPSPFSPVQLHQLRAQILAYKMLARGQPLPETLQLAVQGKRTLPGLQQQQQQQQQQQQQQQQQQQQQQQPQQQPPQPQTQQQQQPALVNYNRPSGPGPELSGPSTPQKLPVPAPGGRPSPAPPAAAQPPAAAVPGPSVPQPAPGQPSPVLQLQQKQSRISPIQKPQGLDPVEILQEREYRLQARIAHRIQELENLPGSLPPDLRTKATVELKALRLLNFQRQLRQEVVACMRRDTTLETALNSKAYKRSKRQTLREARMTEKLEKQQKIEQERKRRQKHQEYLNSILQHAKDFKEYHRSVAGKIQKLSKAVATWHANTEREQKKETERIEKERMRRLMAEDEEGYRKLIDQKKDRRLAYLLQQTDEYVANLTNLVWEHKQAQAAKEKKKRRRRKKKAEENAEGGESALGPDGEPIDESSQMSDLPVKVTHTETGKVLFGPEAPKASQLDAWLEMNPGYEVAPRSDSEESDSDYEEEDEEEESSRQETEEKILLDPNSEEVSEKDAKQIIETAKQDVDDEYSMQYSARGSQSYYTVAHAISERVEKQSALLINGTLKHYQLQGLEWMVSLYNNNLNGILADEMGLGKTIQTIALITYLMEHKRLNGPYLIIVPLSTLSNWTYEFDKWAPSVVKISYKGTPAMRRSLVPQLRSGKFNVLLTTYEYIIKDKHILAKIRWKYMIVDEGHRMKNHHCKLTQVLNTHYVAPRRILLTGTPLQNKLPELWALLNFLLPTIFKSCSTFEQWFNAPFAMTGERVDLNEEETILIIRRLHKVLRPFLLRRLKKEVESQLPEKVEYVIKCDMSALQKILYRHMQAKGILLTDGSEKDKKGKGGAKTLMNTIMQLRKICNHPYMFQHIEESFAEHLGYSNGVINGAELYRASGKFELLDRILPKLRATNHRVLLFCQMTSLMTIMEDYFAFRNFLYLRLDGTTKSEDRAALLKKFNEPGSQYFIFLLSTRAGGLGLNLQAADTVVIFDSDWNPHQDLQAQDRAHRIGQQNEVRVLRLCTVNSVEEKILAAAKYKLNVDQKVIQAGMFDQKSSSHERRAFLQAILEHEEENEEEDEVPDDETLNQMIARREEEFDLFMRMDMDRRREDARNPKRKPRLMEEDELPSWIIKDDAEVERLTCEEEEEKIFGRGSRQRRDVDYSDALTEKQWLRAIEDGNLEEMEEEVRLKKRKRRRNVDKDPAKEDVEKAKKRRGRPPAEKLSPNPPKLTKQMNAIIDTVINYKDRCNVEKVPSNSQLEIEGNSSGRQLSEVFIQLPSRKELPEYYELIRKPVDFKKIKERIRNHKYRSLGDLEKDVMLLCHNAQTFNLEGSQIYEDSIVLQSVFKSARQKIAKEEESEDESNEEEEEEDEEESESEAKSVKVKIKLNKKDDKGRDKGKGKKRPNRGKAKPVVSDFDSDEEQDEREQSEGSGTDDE

Take `CN(C(=O)N1CCN2c3cc(-c4ccccc4O)nnc3NC[C@H]2C1)C1CCN(CC2CCN(c3ccc4c(c3)CN(C3CCC(=O)NC3=O)C4=O)CC2)CC1` (stereo partly drawn) [Example 139, (6aS)-N-(1-((1-(2-(2,6-dioxopiperidin-3-yl)-1-oxoisoindolin-5-yl)piperidin-4-yl)methyl)piperidin-4-yl)-2-(2-hydroxyphenyl)-N-methyl-5,6,6a,7,9,10-hexahydro-8H-pyrazino[1′,2′:4,5]pyrazino[2,3-c]pyridazine-8-carboxamide]: on SMARCA2-HiBiT, the half-maximal degradation concentration (DC50) was less than 10 nM and the Dmax is greater than 85%. Besides, at SMARCA4-HiBiT, the DC50 was less than 10 nM and the maximal degradation (Dmax) is greater than 85%.

As to `O=C1CCC(N2C(=O)c3ccc(N4CCC(CNC5CCN(C(=O)N6CCN7c8cc(-c9ccccc9O)nnc8NC[C@H]7C6)CC5)CC4)cc3C2=O)C(=O)N1` (stereo partly drawn) [Example 140, 2-(2,6-dioxopiperidin-3-yl)-5-(4-(((l-((S)-2-(2-hydroxyphenyl)-6,6a,7,8,9,10-hexahydro-5H-pyrazino[1′,2′:4,5]pyrazino[2,3-c]pyridazine-8-carbonyl)piperidin-4-yl)amino)methyl)piperidin-1-yl)isoindoline-1,3-dione], at SMARCA2-HiBiT, the DC50 was less than 10 nM and the Dmax was in the range of 75 to 85%. Also, on SMARCA4-HiBiT, the 50% degradation concentration (DC50) was less than 10 nM and the Dmax lay within 75 to 85%.

For the molecule `O=C1CCC(N2C(=O)c3ccc(N4CCC(NC5CCN(C(=O)N6CCN7c8cc(-c9ccccc9O)nnc8NC[C@H]7C6)CC5)CC4)cc3C2=O)C(=O)N1` (stereo partly drawn) [Example 141, 2-(2,6-dioxopiperidin-3-yl)-5-(4-((1-((S)-2-(2-hydroxyphenyl)-6,6a,7,8,9,10-hexahydro-5H-pyrazino[1′,2′:4,5]pyrazino[2,3-c]pyridazine-8-carbonyl)piperidin-4-yl)amino)piperidin-1-yl)isoindoline-1,3-dione], at SMARCA2-HiBiT, the half-maximal degradation concentration (DC50) was less than 10 nM and the greatest degradation seen (Dmax) lay in the range of 75 to 85%. In addition, on SMARCA4-HiBiT, the DC50 was in the range of 10 to 100 nM and the maximal degradation (Dmax) fell in the range of 50 to 75%.

Regarding `O=C1CCC(N2C(=O)c3ccc(N4CCN(CC5CCN(C(=O)N6CCN7c8cc(-c9ccccc9O)nnc8NC[C@H]7C6)CC5)CC4)cc3C2=O)C(=O)N1` (stereo partly drawn) [Example 142, 2-(2,6-dioxopiperidin-3-yl)-5-(4-((1-((S)-2-(2-hydroxyphenyl)-6,6a,7,8,9,10-hexahydro-5H-pyrazino[1′,2′:4,5]pyrazino[2,3-c]pyridazine-8-carbonyl)piperidin-4-yl)methyl)piperazin-1-yl)isoindoline-1,3-dione], at SMARCA2-HiBiT, the DC50 is less than 10 nM and the greatest degradation seen (Dmax) was 75 to 85%. In addition, on SMARCA4-HiBiT, the half-maximal degradation concentration (DC50) was 10 to 100 nM and the Dmax lay in the range of 50 to 75%.

As for `O=C1CCC(N2Cc3ccc(C4CCN(CC5CCN(C(=O)N6CCN7c8cc(-c9ccccc9O)nnc8NC[C@H]7C6)CC5)CC4)cc3C2=O)C(=O)N1` (stereo partly drawn) [Example 143, 3-(6-(1-((1-((S)-2-(2-hydroxyphenyl)-6,6a,7,8,9,10-hexahydro-5H-pyrazino[1′,2′:4,5]pyrazino[2,3-c]pyridazine-8-carbonyl)piperidin-4-yl)methyl)piperidin-4-yl)-1-oxoisoindolin-2-yl) piperidine-2,6-dione], the half-maximal degradation concentration (DC50) at SMARCA2-HiBiT is less than 10 nM; on SMARCA4-HiBiT it was 10 to 100 nM. Also, the Dmax at SMARCA2-HiBiT was greater than 85%; at SMARCA4-HiBiT it was 75 to 85%.

Consider `O=C1CCC(N2C(=O)c3ccc(C4CCN(CC5CCN(C(=O)N6CCN7c8cc(-c9ccccc9O)nnc8NC[C@H]7C6)CC5)CC4)cc3C2=O)C(=O)N1` (stereo partly drawn) [Example 144, 2-(2,6-dioxopiperidin-3-yl)-5-(1-((1-((S)-2-(2-hydroxyphenyl)-6,6a,7,8,9,10-hexahydro-5H-pyrazino[1′,2′:4,5]pyrazino[2,3-c]pyridazine-8-carbonyl)piperidin-4-yl)methyl)piperidin-4-yl)isoindoline-1,3-dione], for which the 50% degradation concentration (DC50) at SMARCA2-HiBiT and at SMARCA4-HiBiT was less than 10 nM each time. In addition, the Dmax at SMARCA2-HiBiT and at SMARCA4-HiBiT was 75 to 85% throughout.

With `O=C1CCC(N2C(=O)c3ccc(OC4CCN(CC5CCN(C(=O)N6CCN7c8cc(-c9ccccc9O)nnc8NC[C@H]7C6)CC5)CC4)cc3C2=O)C(=O)N1` (stereo partly drawn) [Example 145, 2-(2,6-dioxopiperidin-3-yl)-5-((1-((1-((S)-2-(2-hydroxyphenyl)-6,6a,7,8,9,10-hexahydro-5H-pyrazino[1′,2′:4,5]pyrazino[2,3-c]pyridazine-8-carbonyl)piperidin-4-yl)methyl)piperidin-4-yl)oxy)isoindoline-1,3-dione], on SMARCA2-HiBiT, the DC50 was less than 10 nM and the maximal degradation (Dmax) was 75 to 85%. In addition, at SMARCA4-HiBiT, the DC50 lay within 10 to 100 nM and the Dmax was 75 to 85%.

As for `O=C1CCC(N2Cc3ccc(N4CCN(CC5CCN(C(=O)N6CCN7c8cc(-c9ccccc9O)nnc8NC[C@H]7C6)CC5)CC4)cc3C2=O)C(=O)N1` (stereo partly drawn) [Example 146, 3-(6-(4-((1-((S)-2-(2-hydroxyphenyl)-6,6a,7,8,9,10-hexahydro-5H-pyrazino[1′,2′:4,5]pyrazino[2,3-c]pyridazine-8-carbonyl)piperidin-4-yl)methyl)piperazin-1-yl)-1-oxoisoindolin-2-yl) piperidine-2,6-dione], at SMARCA2-HiBiT, the DC50 was less than 10 nM and the Dmax is greater than 85%. In addition, at SMARCA4-HiBiT, the DC50 was less than 10 nM and the Dmax is greater than 85%.

On to `O=C1CCC(N2C(=O)c3ccc(N4CC5(CC(CN6CCC(CN7CCN8c9cc(-c%10ccccc%10O)nnc9NC[C@H]8C7)CC6)C5)C4)cc3C2=O)C(=O)N1` (stereo partly drawn) [Example 147, 2-(2,6-dioxopiperidin-3-yl)-5-(6-((4-(((S)-2-(2-hydroxyphenyl)-5,6,6a,7,9,10-hexahydro-8H-pyrazino[1′,2′:4,5]pyrazino[2,3-c]pyridazin-8-yl)methyl)piperidin-1-yl)methyl)-2-azaspiro[3.3]heptan-2-yl)isoindoline-1,3-dione], for which, at SMARCA2-HiBiT, the 50% degradation concentration (DC50) was less than 10 nM and the Dmax is greater than 85%. At SMARCA4-HiBiT, the DC50 is less than 10 nM and the Dmax is greater than 85%.

For the molecule `CC1CC(CN2CCC(CN3CCN4c5cc(-c6ccccc6O)nnc5NC[C@H]4C3)CC2)CCN1c1ccc2c(c1)C(=O)N(C1CCC(=O)NC1=O)C2=O` (stereo partly drawn) [Example 148, 2-(2,6-dioxopiperidin-3-yl)-5-(4-((4-(((S)-2-(2-hydroxyphenyl)-5,6,6a,7,9,10-hexahydro-8H-pyrazino[1′,2′:4,5]pyrazino[2,3-c]pyridazin-8-yl)methyl)piperidin-1-yl)methyl)-2-methylpiperidin-1-yl)isoindoline-1,3-dione], the DC50 on SMARCA2-HiBiT and at SMARCA4-HiBiT was less than 10 nM throughout. The maximal degradation (Dmax) at SMARCA2-HiBiT and on SMARCA4-HiBiT was greater than 85% each time.

As for `O=C1CCC(N2C(=O)c3ccc(N4CCC(F)(CN5C[C@@H]6[C@@H](CN7CCN8c9cc(-c%10ccccc%10O)nnc9NC[C@H]8C7)[C@@H]6C5)CC4)cc3C2=O)C(=O)N1` (stereo partly drawn) [Example 149, 2-(2,6-dioxopiperidin-3-yl)-5-(4-fluoro-4-(((1R,5S,6s)-6-(((S)-2-(2-hydroxyphenyl)-5,6,6a,7,9,10-hexahydro-8H-pyrazino[1′,2′:4,5]pyrazino[2,3-c]pyridazin-8-yl)methyl)-3-azabicyclo[3.1.0]hexan-3-yl)methyl)piperidin-1-yl)isoindoline-1,3-dione], the figures for the DC50 at SMARCA2-HiBiT and at SMARCA4-HiBiT were less than 10 nM and 10 to 100 nM, respectively. Further, the maximal degradation (Dmax) at SMARCA2-HiBiT and at SMARCA4-HiBiT was 50 to 75% each time.

Turning to `O=C1CCC(N2C(=O)c3ccc(N4CCC5(CC4)CC(CN4CCC(CN6CCN7c8cc(-c9ccccc9O)nnc8NC[C@H]7C6)CC4)C5)cc3C2=O)C(=O)N1` (stereo partly drawn) [Example 150, 2-(2,6-dioxopiperidin-3-yl)-5-(2-((4-(((S)-2-(2-hydroxyphenyl)-5,6,6a,7,9,10-hexahydro-8H-pyrazino[1′,2′:4,5]pyrazino[2,3-c]pyridazin-8-yl)methyl)piperidin-1-yl)methyl)-7-azaspiro[3.5]nonan-7-yl)isoindoline-1,3-dione], at SMARCA2-HiBiT, the DC50 was less than 10 nM and the Dmax is greater than 85%. Moreover, on SMARCA4-HiBiT, the DC50 is less than 10 nM and the Dmax was greater than 85%.

Turning to `CC1(CN2C[C@@H]3[C@@H](CN4CCN5c6cc(-c7ccccc7O)nnc6NC[C@H]5C4)[C@@H]3C2)CCN(c2ccc3c(c2)C(=O)N(C2CCC(=O)NC2=O)C3=O)C1` (stereo partly drawn) [Example 151, 2-(2,6-dioxopiperidin-3-yl)-5-(3-(((1R,5S,6r)-6-(((S)-2-(2-hydroxyphenyl)-5,6,6a,7,9,10-hexahydro-8H-pyrazino[1′,2′:4,5]pyrazino[2,3-c]pyridazin-8-yl)methyl)-3-azabicyclo[3.1.0]hexan-3-yl)methyl)-3-methylpyrrolidin-1-yl)isoindoline-1,3-dione], at SMARCA2-HiBiT, the 50% degradation concentration (DC50) is less than 10 nM and the Dmax was 75 to 85%. On SMARCA4-HiBiT, the DC50 fell in the range of 10 to 100 nM and the greatest degradation seen (Dmax) is 50 to 75%.

In the case of `O=C1CCC(N2C(=O)c3ccc(N4CCC(CCN5C[C@@H]6[C@H](C5)[C@H]6CN5CCN6c7cc(-c8ccccc8O)nnc7NC[C@H]6C5)CC4)cc3C2=O)C(=O)N1` (stereo partly drawn) [Example 152, 2-(2,6-dioxopiperidin-3-yl)-5-(4-(2-((1R,5S,6r)-6-(((S)-2-(2-hydroxyphenyl)-5,6,6a,7,9,10-hexahydro-8H-pyrazino[1′,2′:4,5]pyrazino[2,3-c]pyridazin-8-yl)methyl)-3-azabicyclo[3.1.0]hexan-3-yl)ethyl)piperidin-1-yl)isoindoline-1,3-dione], the DC50 at SMARCA2-HiBiT and on SMARCA4-HiBiT was less than 10 nM each time. In addition, the Dmax on SMARCA2-HiBiT and at SMARCA4-HiBiT was 50 to 75% throughout.
